Data as given in publication PMC9352109, “Novel silkworm (Bombyx mori) sulfotransferase swSULT ST3 is involved in metabolism of polyphenols from mulberry leaves” (PLoS ONE, 2022).

Molecular target: T1, AKR2E8 (Bombyx mori, UniProt A0A8D5RRY4)
T1 sequence (A0A8D5RRY4 1-331 limits assumed): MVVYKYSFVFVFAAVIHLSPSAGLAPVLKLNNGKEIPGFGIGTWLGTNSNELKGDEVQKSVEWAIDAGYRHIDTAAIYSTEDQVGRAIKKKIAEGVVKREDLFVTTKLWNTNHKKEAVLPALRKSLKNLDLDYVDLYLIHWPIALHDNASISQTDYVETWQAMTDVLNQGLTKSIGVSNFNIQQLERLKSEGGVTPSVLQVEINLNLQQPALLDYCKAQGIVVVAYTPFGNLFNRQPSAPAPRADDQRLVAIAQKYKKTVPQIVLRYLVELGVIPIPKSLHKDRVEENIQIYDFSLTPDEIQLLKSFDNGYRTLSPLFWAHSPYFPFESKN
Experiment: NADPH-linked benzaldehyde reduction
Format: biochemical
Conditions: 0.1 mM NADPH, 25 μM benzaldehyde, 0.1 M potassium phosphate pH 7.4
Text: NADPH-linked benzaldehyde reduction on AKR2E8

IC50 | Compound
460 ± 120 nM | O=c1c(O)c(-c2ccc(O)cc2)oc2cc(O)cc(O)c12 [Kaempferol]
550 ± 23 nM | Oc1ccc(/C=C/c2cc(O)cc(O)c2)cc1 [Resveratrol]
170 ± 10 nM | O=c1cc(-c2ccc(O)cc2)oc2cc(O)cc(O)c12 [Apigenin]
18 ± 1.4 nM | O=c1c(-c2ccc(O)cc2)coc2cc(O)cc(O)c12 [Genistein]
34 ± 2.7 nM | O=c1c(-c2ccc(O)cc2)coc2cc(O)ccc12 [Daidzein]

Compound | IC50
O=c1c(O)c(-c2ccc(O)c(O)c2)oc2cc(O)cc(O)c12 [Quercetin] | 65 ± 1.8 nM
